The values below come from US20250325699A1, “POLYPEPTIDES AND METHODS OF USE” (Aldevron, LLC, priority 2022, published 2025).

The test system of this experiment is HepG2 cells. The experiment can be described thus: In vitro transfection of HepG2 cells, normalized luciferase activity. In kind it is cell-based. The conditions noted are these: 48 hours. The procedure:
FIGS. 4A and 4B are graphs showing normalized luciferase activity in HepG2 cells 48 hours after in vitro transfection. Lipid nanoparticles were formed with RALA-NLS polypeptides and 250 ng or 500 ng C3-fLuc1157 DNA at a molar ratio of 700, 1400, 2100, or 2800. […]
FIGS. 4A and 4B are graphs showing normalized luciferase activity in HepG2 cells 48 hours after in vitro transfection. Lipid nanoparticles were formed with RALA-NLS polypeptides and 250 ng or 500 ng C^3-fLuc1157 DNA at a molar ratio of 700, 1400, 2100, or 2800.

Turning to “WEARLARALARALARHLARALARALRACEAPKKKRKV [RALA-NLS]”, the “transfection efficiency in slightly cationic LNPs (20% DOTAP)” value (FIG. 4B (20% DOTAP) versus FIG. 4A (DOPE)) is listed as “more pronounced”. Further, under “FIGS. 4A and 4B”, the “transfection with higher amounts of DNA (500 ng) as compared to lower amounts (250 ng)” value is “more efficient transfection”. Moreover, the “transfection improvement compared to LNP without polypeptide” value (LNP with 700× polypeptide (molar ratio to C^3-fLuc1157 DNA)) was around 20 fold, the “transfection improvement compared to LNP without polypeptide” value (LNP with 1400× polypeptide (molar ratio to C^3-fLuc1157 DNA)) is recorded as around 35 fold, the “transfection improvement compared to LNP without polypeptide” value (LNP with 2100× polypeptide (molar ratio to C^3-fLuc1157 DNA)) is on record as around 50 fold and the “transfection improvement compared to LNP without polypeptide” value (LNP with 2800× polypeptide (molar ratio to C^3-fLuc1157 DNA)) is reported as around 65 fold.
